This note sets out measurements from BindingDB's records for doi:10.1021/jm00048a015 (Pfizer, 1994).

SMILES strings stand for the structures.

This assay deals with Gastrin/cholecystokinin type B receptor (Cavia porcellus). Description: In vitro affinity to the cholecystokinin type B receptor in guinea pig cortex assayed using [125I]BH-CCK-8 as radioligand.
`CCC(C)(C)NC(=O)CN1C(=O)[C@H](NC(=O)Nc2cccc(Cl)c2)C[C@H](c2ccccc2)c2ccccc21` [2-{(3R,5R)-3-[3-(3-Chloro-phenyl)-ureido]-2-oxo-5-phenyl-2,3,4,5-tetrahydro-benzo[b]azepin-1-yl}-N-(1,1-dimethyl-propyl)-acetamide] came in with an IC50 of 7.6 nM.

For the compound `Cc1ccc2c(c1)N(CC(=O)NC(C)(C)C)C(=O)[C@H](NC(=O)Nc1cccc(Cl)c1)C[C@@H]2Cc1ccccc1` [2-{(3R,5S)-5-Benzyl-3-[3-(3-chloro-phenyl)-ureido]-8-methyl-2-oxo-2,3,4,5-tetrahydro-benzo[b]azepin-1-yl}-N-tert-butyl-acetamide], the IC50 came out at 1.4 nM.

Compound `Cc1cccc(NC(=O)N[C@@H]2C[C@H](c3ccccc3)c3ccccc3N(CC(=O)NC(C)(C)C)C2=O)c1` [N-tert-Butyl-2-[(3R,5R)-2-oxo-5-phenyl-3-(3-m-tolyl-ureido)-2,3,4,5-tetrahydro-benzo[b]azepin-1-yl]-acetamide] gave an IC50 of 10.1 nM.

As for `Cc1ccccc1NC(=O)N[C@@H]1C[C@H](c2ccccc2)c2ccccc2N(CC(=O)NC(C)(C)C)C1=O` [N-tert-Butyl-2-[(3R,5R)-2-oxo-5-phenyl-3-(3-o-tolyl-ureido)-2,3,4,5-tetrahydro-benzo[b]azepin-1-yl]-acetamide], the IC50 is 55 nM.

With `Cc1ccc(NC(=O)N[C@@H]2C[C@H](c3ccccc3)c3ccccc3N(CC(=O)NC(C)(C)C)C2=O)cc1` [N-tert-Butyl-2-[(3R,5R)-2-oxo-5-phenyl-3-(3-p-tolyl-ureido)-2,3,4,5-tetrahydro-benzo[b]azepin-1-yl]-acetamide], the IC50 worked out at 35 nM.

For `CN(C(=O)CN1C(=O)[C@H](NC(=O)Nc2cccc(Cl)c2)C[C@H](c2ccccc2)c2ccccc21)C(C)(C)C` [N-tert-Butyl-2-{(3R,5R)-3-[3-(3-chloro-phenyl)-ureido]-2-oxo-5-phenyl-2,3,4,5-tetrahydro-benzo[b]azepin-1-yl}-N-methyl-acetamide], the IC50 stood at 1.5 nM. Against the preceding compound, the IC50 is about 23-fold lower.

`Cc1ccc2c(c1)N(CC(=O)NC(C)(C)C)C(=O)[C@H](NC(=O)Nc1cccc(Cl)c1)C[C@@H]2C1CCCCC1` [N-tert-Butyl-2-{(3R,5R)-3-[3-(3-chloro-phenyl)-ureido]-5-cyclohexyl-8-methyl-2-oxo-2,3,4,5-tetrahydro-benzo[b]azepin-1-yl}-acetamide] displayed an IC50 of 0.6 nM.

Regarding `Cc1ccc2c(c1)N(CC(=O)NC(C)(C)C)C(=O)[C@H](NC(=O)Nc1cccc(Cl)c1)C[C@@H]2C(C)C` [N-tert-Butyl-2-{(3R,5R)-3-[3-(3-chloro-phenyl)-ureido]-5-isopropyl-8-methyl-2-oxo-2,3,4,5-tetrahydro-benzo[b]azepin-1-yl}-acetamide], the IC50 is 3.4 nM.

As to `Cc1ccc2c(c1)[C@@H](c1ccccc1)C[C@@H](NC(=O)Nc1cccc(Cl)c1)C(=O)N2CC(=O)NC(C)(C)C` [N-tert-Butyl-2-{(3R,5R)-3-[3-(3-chloro-phenyl)-ureido]-7-methyl-2-oxo-5-phenyl-2,3,4,5-tetrahydro-benzo[b]azepin-1-yl}-acetamide], the IC50 turned out to be 32 nM.

Compound `COc1cccc(NC(=O)N[C@@H]2C[C@H](c3ccccc3)c3ccccc3N(CC(=O)NC(C)(C)C)C2=O)c1` [N-tert-Butyl-2-{(3R,5R)-3-[3-(3-methoxy-phenyl)-ureido]-2-oxo-5-phenyl-2,3,4,5-tetrahydro-benzo[b]azepin-1-yl}-acetamide] registered an IC50 of 30.4 nM.

Compound `CC(C)(C)NC(=O)CN1C(=O)[C@H](NC(=O)Nc2cccc(Cl)c2)C[C@H](c2cccc(Cl)c2)c2ccccc21` [N-tert-Butyl-2-{(3R,5R)-5-(3-chloro-phenyl)-3-[3-(3-chloro-phenyl)-ureido]-2-oxo-2,3,4,5-tetrahydro-benzo[b]azepin-1-yl}-acetamide] came in with an IC50 of 4 nM.

Take `CC(C)(C)NC(=O)CN1C(=O)[C@H](NC(=O)Nc2cccc(Cl)c2)C[C@H](c2ccccc2)c2cc(Cl)ccc21` [N-tert-Butyl-2-{(3R,5R)-7-chloro-3-[3-(3-chloro-phenyl)-ureido]-2-oxo-5-phenyl-2,3,4,5-tetrahydro-benzo[b]azepin-1-yl}-acetamide]: the IC50 amounted to 24 nM. This IC50 lies about 6-fold higher than the previous one.

The compound `Cc1cccc(NC(=O)N[C@@H]2C[C@H](c3ccccc3)c3ccccc3N(CC(=O)OC(C)(C)C)C2=O)c1` [[(3R,5R)-2-Oxo-5-phenyl-3-(3-m-tolyl-ureido)-2,3,4,5-tetrahydro-benzo[b]azepin-1-yl]-acetic acid tert-butyl ester] showed an IC50 of 2.5 nM. Against the preceding compound, the IC50 is about 9.6-fold lower.

Consider `Cc1ccc2c(c1)N(CC(=O)OC(C)(C)C)C(=O)[C@H](NC(=O)Nc1cccc(Cl)c1)C[C@@H]2c1ccccc1` [{(3R,5R)-3-[3-(3-Chloro-phenyl)-ureido]-8-methyl-2-oxo-5-phenyl-2,3,4,5-tetrahydro-benzo[b]azepin-1-yl}-acetic acid tert-butyl ester], for which the IC50 is 2.2 nM.

As usually defined, the IC50 is the point on the concentration scale where inhibition reaches its midpoint.
